Experimental data as given in article PMC10860144, “Exploring the Dispersion and Electrostatic Components in Arene–Arene Interactions between Ligands and G4 DNA to Develop G4-Ligands” (Journal of Medicinal Chemistry, 2024).
Like-named read-outs stand apart in the source and are kept apart here.

How the values were obtained:
THP-1 cell line = test: THP-1 cell viability (cytotoxicity); format: cell-based, human; conditions: read-out: Cell viability IC50 (THP1)
Protocol: THP1 cell viability was measured according to a previously published procedure.[48] […]
Table S3. Cell permeability and cell viability for 5 and 27
Compound Cell-permeability Cell viability IC50 Cell viability IC50 Cell viability IC50
(X x 10-6 cm/s) (THP1) (µM) (HeLa) (µM) (IHTLCP) (µM) […]
(§1) THP1 cell viability was measured according to a previously published procedure.9

[1] = test system: Immortalized Human Total Liver Cell Population (IHTLCP); test: IHTLCP cell viability (PrestoBlue); format: cell-based; conditions: 72 h
Protocol: (§2) Cell viability was measured using the PrestoBlue cell viability reagent (Invitrogen) according to the manufacturer’s recommendations.
For IHTLCP, 1850 cells/well were seeded in complete Prigrow III medium (abm) in 384-wells, black walls plate (PerkinElmer) the day before the treatment. Compounds were titrated 1/2 in DMSO, dissolved in medium, and transferred to the cells to generate the indicated final concentrations (final volume 60 μL/well). 72 h after treatment, 6 μL of PrestoBlue was added per well. Cells were incubated in PrestoBlue for 1 h at 37 °C after which fluorescence (excitation 535 nm, emission 590 nm, 20 nm bandwidth) was measured using a Synergy H4Microplate Reader. Percent viability of IHTLCP cells was calculated as FLUcmp – FLUbg/FLUDMSO – FLUbg (n = 3). […]
a Intrinsic clearance in rat hepatocytes ((μL/min)/10^6 cells).b Intrinsic clearance in human microsomes (μL/min/mg).
Table S3. […]
as §2
For HeLa cells, 5000 cells/well were seeded in complete medium on 96-wells, black walls plate the day before the treatment. […] Fluorescence (excitation 560 nm, emission 590 nm, 10 nm bandwidth) was recorded using a FLUOstar Omega Microplate Reader (BMG). […]
as §1

HeLa cells = test: HeLa cell viability (PrestoBlue); format: cell-based; conditions: Homo sapiens, 48 h
Protocol: as §2
For HeLa cells, 5000 cells/well were seeded in complete medium on 96-wells, black walls plate the day before the treatment. Compounds were dissolved in medium at the indicated concentrations and added to cells. Five technical replicates were performed for each treatment. 48 h after treatment, 8 μL of PrestoBlue was added to each well and the cells were incubated at 37 °C for 15 min. Fluorescence (excitation 560 nm, emission 590 nm, 10 nm bandwidth) was recorded using a FLUOstar Omega Microplate Reader (BMG). […]
as §2
For HeLa cells, 5000 cells/well were seeded in complete medium on 96-wells, black walls plate the day before the treatment. […] Fluorescence (excitation 560 nm, emission 590 nm, 10 nm bandwidth) was recorded using a FLUOstar Omega Microplate Reader (BMG).
For Immortalized Human Total Liver Cell Population (IHTLCP), 1850 cells/well were seeded in complete Prigrow III medium (abm) in 384-wells, black walls plate (Perkin Elmer) the day before the treatment. […] Percent viability of IHTLCP cells was calculated as FLUcmp -FLUbg/ FLUDMSO -FLUbg (n=3).
as §1

[2] = test system: G4 DNA structures in HeLa cells; test: BG4 immunostaining of G4 DNA structures in HeLa cells; format: cell-based, human; conditions: 24 h
Protocol: The pSANG10-3F-BG4 construct, for expression and purification of recombinant BG4 (BG4), was a gift from Shankar Balasubramanian (Addgene plasmid # 55756). BG4 was purified as previously described.[49] BG4 immunostaining was performed as previously described.[50] Briefly, 60,000 HeLa cells were seeded on 13 mm glass coverslips the day before treatment. Cells were treated for 24 h with the compounds at the indicated concentrations. After treatment, cells were fixed in 2% paraformaldehyde and permeabilized in 0.1% Triton X-100 at room temperature. […] Cell nuclei were focused on the DAPI channel, and BG4-positive foci were counted in a semiautomatic mode using a customized Cell Profiler (Broad Institute) pipeline. […]
Figure S23. Toxicity of 5 and 27 calculated as % viability of IHTLCP cells treated for 72h at the indicated concentrations compared to non-treated cells. […] IC50 and R2 determined with Graph Pad Prism is indicated. […]
Cells were imaged with a LEICA SP8 FALCON confocal microscope equipped with a 63× oil objective (NA 1.40) using identical acquisition settings. Cell nuclei were focused on the DAPI channel, and BG4-positive foci were counted in a semiautomatic mode using a customized Cell Profiler (Broad Institute) pipeline. […]

[3] = Homo sapiens, THP-1, THP-1 cell line

Structure (SMILES) | IC50 (THP-1 cell line; [3]) | IC50 (THP-1 cell line; THP-1 cell line) | IC50 [1] | IC50 (HeLa cells) | number of BG4 foci per cell nucleus ([2]; 2 μM, versus 1 μM and mock-treated cells) | number of BG4 foci per cell nucleus ([2]; 20 μM)
Cc1cc(C)c2nc(Nc3nc(C)cc(NCCCN(C)C)n3)nc(C)c2c1 [Compound 5, N4-(3-(Dimethylamino)propyl)-6-methyl-N2-(4,6,8-trimethylquinazolin-2-yl)pyrimidine-2,4-diamine] | 2.89 µM | 2.9 µM | 0.64 µM | 0.88 to 1.1 µM | increased significantly | 
Cc1cc(C)c2nc(Nc3nc(C)cc(C)n3)nc(C)c2c1 [Compound 27, N-(4,6-Dimethylpyrimidin-2-yl)-4,6,8-trimethylquinazolin-2-amine] | > 50 µM | ≥ 50 µM | 35 µM | 19 to 34 µM |  | not statistically fully significant
